Source: ChEMBL document CHEMBL3351617, “Concise syntheses of 7-anilino-indoline-N-benzenesulfonamides as antimitotic and vascular disrupting agents” (Bioorg Med Chem, 2014)
The source made the active and inactive calls. The calls are words filed in the database; no cut-off is given here.

How the values were obtained:
KB [1] = test: Antiproliferative activity against human KB cells; assay type: functional, cell-based
HT-29 [2] = test: Antiproliferative activity against human HT-29 cells; assay type: functional, cell-based
[3] = Antiproliferative activity against human MKN45 cells; assay type: functional, cell-based; settings: MKN-45
[4] = Retention time of the compound by HPLC; assay type: physicochemical
[5] = Antiproliferative activity against human KB-VIN10 cells; assay type: functional, cell-based
[6] = Antiproliferative activity against human KB-S15 cells; assay type: functional, cell-based
[7] = Antiproliferative activity against human KB-7d cells; assay type: functional, cell-based; settings: KB7D
Tubulin = test: Inhibition of tubulin (unknown origin) polymerization by spectrophotometry; assay type: protein-complex assay, Homo sapiens
Tubulin (Homo sapiens) [8] = biological target: T1, Tubulin (Homo sapiens) (UniProt P68371+Q9H4B7+P0DPH7+P68366+Q13509+Q71U36+P04350+Q3ZCM7+P07437+P68363+Q9BQE3+Q6PEY2+Q13885+Q9BVA1+Q9BUF5); test: Displacement of [3H]colchicine from long-chain biotin-labeled tubulin (unknown origin) at 1 uM after 2 hrs by competition-binding scintillation proximity assay; assay type: protein-complex assay
Tubulin (Homo sapiens) [9] = biological target: T1, Tubulin (Homo sapiens); test: Competitive inhibition of [3H]colchicine binding to long-chain biotin-labeled tubulin (unknown origin) after 2 hrs by double-reciprocal plot analysis; assay type: protein-complex assay
Tubulin (Homo sapiens) [10] = biological target: T1, Tubulin (Homo sapiens); test: Inhibition of MAP-rich tubulin (unknown origin) polymerization measured every 30 seconds for 30 mins by spectrophotometry; assay type: protein-complex assay
Tubulin (Homo sapiens) [11] = biological target: T1, Tubulin (Homo sapiens); test: Inhibition of MAP-rich tubulin (unknown origin) polymerization at 10 uM measured every 30 seconds for 30 mins by spectrophotometry; assay type: protein-complex assay
KB [12] = test: Cell cycle arrest in human KB cells assessed as accumulation at G2/M phase after 24 hrs using propidium iodide staining by flow cytometry; assay type: functional, cell-based
KB [13] = test: Cell cycle arrest in human KB cells assessed as reduction of cells at G1 phase at 25 to 400 nM after 24 hrs using propidium iodide staining by flow cytometry; assay type: functional, cell-based
KB [14] = test: Cell cycle arrest in human KB cells assessed as reduction of cells at S phase at 25 to 400 nM after 24 hrs using propidium iodide staining by flow cytometry; assay type: functional, cell-based
KB [15] = test: Cell cycle arrest in human KB cells assessed as accumulation of cells at sub-G1 phase at 100 nM after 24 hrs using propidium iodide staining by flow cytometry; assay type: functional, cell-based
HUVEC [16] = test: Disruption of vasculature in HUVECs assessed as inhibition of VEGF-induced capillary tube formation by microscopy; assay type: functional, cell-based; settings: Homo sapiens
HUVEC [17] = test: Disruption of vasculature in HUVECs assessed as inhibition of VEGF-induced capillary tube formation at 100 nM by microscopy; assay type: functional, cell-based; settings: Homo sapiens
HUVEC [18] = test: Cytotoxicity against HUVECs assessed as reduction in cell viability at 100 nM; assay type: cell-based; settings: human, 0.1 µM
Tubulin (Homo sapiens) [19] = biological target: T1, Tubulin (Homo sapiens); test: Displacement of [3H]colchicine from long-chain biotin-labeled tubulin (unknown origin) at 5 uM after 2 hrs by competition-binding scintillation proximity assay; assay type: protein-complex assay
HT-29 [20] = test: Ratio of ABT751 IC50 to compound IC50 for human HT-29 cells; assay type: functional
MKN-45 = test: Ratio of ABT751 IC50 to compound IC50 for human MKN45 cells; assay type: functional
KB [21] = test: Ratio of ABT751 IC50 to compound IC50 for human KB cells; assay type: functional

Structure (SMILES)	IC50 (KB [1]) [nM]	IC50 (HT-29 [2]) [nM]	Retention_time [4] [min]	IC50 [3] [nM]	IC50 [7] [nM]	also measured
COc1ccc(Nc2cccc3c2N(S(=O)(=O)c2ccc(OC)cc2)CC3)cc1	1200	803	43.47	487		
COc1ccc(S(=O)(=O)N2CCc3cccc(Nc4ccc(F)c(F)c4)c32)cc1	412	968	45.49	726		
CC(=O)O[C@H]1C(=O)[C@@]2(C)[C@H]([C@H](OC(=O)c3ccccc3)[C@]3(O)C[C@H](OC(=O)[C@H](O)[C@@H](NC(=O)c4ccccc4)c4ccccc4)C(C)=C1C3(C)C)[C@]1(OC(C)=O)CO[C@@H]1C[C@@H]2O [PACLITAXEL]					7.9	
COc1ccc(S(=O)(=O)N2CCc3cccc(Nc4ccc(Cl)cc4)c32)cc1	1100	658	48.11	463		
CC[C@]1(O)C[C@H]2CN(CCc3c([nH]c4ccccc34)[C@@](C(=O)OC)(c3cc4c(cc3OC)N(C=O)[C@H]3[C@@](O)(C(=O)OC)[C@H](OC(C)=O)[C@]5(CC)C=CCN6CC[C@]43[C@@H]65)C2)C1 [VINCRISTINE]					1.2	
COc1cc([C@@H]2c3cc4c(cc3[C@@H](O[C@@H]3O[C@@H]5CO[C@@H](C)O[C@H]5[C@H](O)[C@H]3O)[C@H]3COC(=O)[C@H]23)OCO4)cc(OC)c1O [ETOPOSIDE]					54000	IC50 [5]: 23000 nM; IC50 [6]: 3500 nM
COc1ccc(S(=O)(=O)N2CCc3cccc(Nc4ccc(C(=O)O)cc4)c32)cc1	846	2380	33.94	1390		
COc1ccc(S(=O)(=O)N2CCc3cccc(Nc4ccc(F)cc4)c32)cc1	557	588	44.71	563		

The remaining compounds from weak to strong by IC50 (KB [1]), led by results:

IC50 (KB [1]) [nM]	IC50 (HT-29 [2]) [nM]	Retention_time [4] [min]	Structure (SMILES)	IC50 [3] [nM]	IC50 [7] [nM]	also measured
342	343	44.81	COc1ccc(S(=O)(=O)N2CCc3cccc(Nc4ccccc4)c32)cc1	187		
239	511	32	COc1ccc(S(=O)(=O)N2CCc3cccc(Nc4ccc(O)cc4)c32)cc1	493		
101	191	42.28	COc1ccc(S(=O)(=O)N2CCc3cccc(Nc4ccc([N+](=O)[O-])cc4)c32)cc1	107	115	IC50 [5]: 109 nM; IC50 [6]: 95.4 nM; IC50 (Tubulin): 3700 nM; inhibition (Tubulin (Homo sapiens) [8]): 44%; Ratio IC50 (HT-29 [20]): 1.5; Ratio IC50 (MKN-45): 1.5; inhibition (Tubulin (Homo sapiens) [19]): 69.3%
93.5	678	42.74	COC(=O)c1ccc(Nc2cccc3c2N(S(=O)(=O)c2ccc(OC)cc2)CC3)cc1	487		IC50 (Tubulin): 4700 nM; inhibition (Tubulin (Homo sapiens) [8]): 41.4%; Ratio IC50 (KB [21]): 3; inhibition (Tubulin (Homo sapiens) [19]): 66.9%
49.7	149	40.79	COc1ccc(S(=O)(=O)N2CCc3cccc(Nc4ccc(C#N)cc4)c32)cc1	92	71.1	IC50 [5]: 71.9 nM; IC50 [6]: 77.3 nM; IC50 (Tubulin): 3200 nM; inhibition (Tubulin (Homo sapiens) [8]): 83.6%; inhibition (Tubulin (Homo sapiens) [9]): Active; inhibition (Tubulin (Homo sapiens) [10]): Dose-dependent effect; inhibition (Tubulin (Homo sapiens) [11]): Active; Activity (KB [12]): Dose-dependent effect; Activity (KB [13]): Active; Activity (KB [14]): Active; Activity (KB [15]): Active; Activity (HUVEC [16]): Dose-dependent effect; Activity (HUVEC [17]): Active; Activity (HUVEC [18]): Non-toxic; inhibition (Tubulin (Homo sapiens) [19]): 86.4%
